“And” between values parts separate entries of the source, which are not always exact repeats. Identical values can stand only once.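 Interpolation was linear, between the two tested concentrations surrounding the appropriate level; five concentrations were tested over 48 hours in 96-well plates. GI50 = concentration required for 50% inhibition of growth.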 The source made the active and inactive calls. Rule as the data show it: active = GI50 up to about 1.1 µM and inactive = higher.
What was measured:
Assay in all cases: NCI-60 cell line screen, 48 h
Malme-3M = system: Malme-3M
HL-60 = system: HL-60
RPMI-8226 = system: RPMI-8226
NCI-H460 = system: NCI-H460
SF-539 = system: SF-539
SK-MEL-5 = system: SK-MEL-5
HOP-92 = system: HOP-92
HCC 2998 = system: HCC 2998
UO-31 = system: UO-31
NCI-H23 = system: NCI-H23
A498 = system: A498
EKVX = system: EKVX
SF-295 = system: SF-295
OVCAR-3 = system: OVCAR-3
RXF 393 = system: RXF 393

Measured: GI50

O=C(O)C1Cc2[nH]cnc2CN1 (stereo not given)
inactive: Malme-3M > 100 µM | HL-60 > 100 µM | RPMI-8226 > 100 µM | NCI-H460 > 100 µM | SF-539 > 100 µM | SK-MEL-5 > 100 µM | HOP-92 > 100 µM | HCC 2998 > 100 µM | UO-31 > 100 µM | NCI-H23 > 100 µM | A498 > 100 µM | EKVX > 100 µM | SF-295 > 100 µM | OVCAR-3 > 100 µM

Cc1c2c(c(C)c3c1[nH]c1ccccc13)CN(C)CC2
inactive: Malme-3M 16.7 µM | HL-60 52 µM | RPMI-8226 26.4 µM | RXF 393 17.6 µM | NCI-H460 16.5 µM | SF-539 14.2 µM | SK-MEL-5 13.3 µM | HOP-92 16.6 µM | HCC 2998 16.7 µM | UO-31 19.5 µM | NCI-H23 15.4 µM | A498 19.5 µM | SF-295 17.1 µM | OVCAR-3 18.7 µM

CCOC(=O)/C(=C/c1ccc(C(F)(F)F)cc1)N(CC)CC
inactive: Malme-3M 57.5 µM | HL-60 > 100 µM | RPMI-8226 > 100 µM | NCI-H460 > 100 µM | SF-539 > 100 µM | SK-MEL-5 32.7 µM | HOP-92 17.5 µM | HCC 2998 > 100 µM | UO-31 46.1 µM | NCI-H23 37.3 µM | A498 > 100 µM | EKVX > 100 µM | SF-295 84.7 µM

COC(=O)c1c[nH]cc1CCCCc1c[nH]cc1C(=O)OC
inactive: Malme-3M > 100 µM | HL-60 73.3 µM | RXF 393 > 100 µM | NCI-H460 > 100 µM | SF-539 > 100 µM | HOP-92 58.6 µM | HCC 2998 > 100 µM | NCI-H23 > 100 µM | A498 > 100 µM | EKVX > 100 µM | SF-295 73.3 µM | OVCAR-3 > 100 µM

C=CCc1cc(OC)c2c(c1)C(O)CC(c1ccccc1)O2 (stereo not given)
inactive: Malme-3M > 100 µM | HL-60 35.6 µM | NCI-H460 > 100 µM | SF-539 > 100 µM | SK-MEL-5 > 100 µM | HOP-92 > 100 µM | HCC 2998 > 100 µM | UO-31 > 100 µM | NCI-H23 > 100 µM | EKVX > 100 µM | SF-295 > 100 µM | OVCAR-3 > 100 µM

CC12c3ccccc3C(OC=O)(c3ccccc31)C1(C)c3ccccc3C2(OC=O)c2ccccc21
inactive: Malme-3M > 100 µM | HL-60 > 100 µM | RPMI-8226 > 100 µM | RXF 393 > 100 µM | NCI-H460 81.3 µM | SK-MEL-5 > 100 µM | HOP-92 > 100 µM | HCC 2998 > 100 µM | UO-31 > 100 µM | NCI-H23 > 100 µM | A498 > 100 µM | EKVX > 100 µM | SF-295 > 100 µM | OVCAR-3 > 100 µM

CCC(C)NC1=C(NC(C)=O)C(=O)c2ccccc2C1=O (stereo not given)
inactive: Malme-3M > 75 µM | HL-60 17.5 µM | RPMI-8226 13.4 µM | RXF 393 > 75 µM | NCI-H460 > 75 µM | SF-539 > 75 µM | SK-MEL-5 > 75 µM | HOP-92 > 75 µM | HCC 2998 > 75 µM | UO-31 > 75 µM | NCI-H23 > 75 µM | A498 > 75 µM | EKVX > 75 µM | SF-295 > 75 µM | OVCAR-3 40.6 µM

CCOC(=O)C(Cc1ccc([N+](=O)[O-])cc1)NC(=O)CC1c2ccccc2-c2ccccc21 (stereo not given)
inactive: Malme-3M 20.6 µM | HL-60 > 100 µM | RPMI-8226 > 100 µM | RXF 393 18 µM | NCI-H460 > 100 µM | SF-539 27.9 µM | HOP-92 23.7 µM | HCC 2998 > 100 µM | UO-31 > 100 µM | NCI-H23 > 100 µM | A498 > 100 µM | EKVX > 100 µM | SF-295 51.5 µM | OVCAR-3 > 100 µM

COc1ccc(N2C(=O)C3c4[nH]c5ccccc5c4C4CCCCCCC4C3C2=O)cc1 (stereo not given)
inactive: Malme-3M 16.6 µM | HL-60 22.5 µM | RPMI-8226 50.4 µM | NCI-H460 7.18 µM | SF-539 7.74 µM | SK-MEL-5 23.8 µM | HOP-92 13.8 µM | HCC 2998 11.2 µM | UO-31 17.4 µM | NCI-H23 13.1 µM | A498 25.5 µM | EKVX 14 µM | SF-295 11.6 µM | OVCAR-3 5.93 µM

C/C(=N\OCC(O)CNC(C)C)c1ccc2c(c1)NC(=O)CS2 (stereo not given)
inactive: Malme-3M > 100 µM | RXF 393 > 100 µM | NCI-H460 > 100 µM | SF-539 > 100 µM | SK-MEL-5 > 100 µM | HOP-92 42.1 µM | HCC 2998 > 100 µM | UO-31 91.2 µM | NCI-H23 > 100 µM | A498 > 100 µM | EKVX > 100 µM | SF-295 > 100 µM | OVCAR-3 > 100 µM

CC(C)(O)[C@@H]1CC[C@@]2(C)CCC[C@H](O)[C@H]2C1
inactive: Malme-3M > 100 µM | HL-60 > 100 µM | RPMI-8226 > 100 µM | NCI-H460 > 100 µM | SF-539 > 100 µM | SK-MEL-5 > 100 µM | HOP-92 > 100 µM | HCC 2998 > 100 µM | UO-31 > 100 µM | NCI-H23 > 100 µM | A498 > 100 µM | SF-295 > 100 µM | OVCAR-3 > 100 µM

CC1CN(c2ccc(Cl)cc2)CC(C)(C)OC(=O)O1 (stereo not given)
inactive: Malme-3M > 100 µM | HL-60 > 100 µM | RPMI-8226 > 100 µM | RXF 393 > 100 µM | NCI-H460 > 100 µM | SF-539 > 100 µM | SK-MEL-5 > 100 µM | HOP-92 > 100 µM | HCC 2998 > 100 µM | UO-31 > 100 µM | NCI-H23 > 100 µM | EKVX > 100 µM | SF-295 > 100 µM | OVCAR-3 > 100 µM

COC(=O)C1CC/C(=N\c2cccc(C(F)(F)F)c2)N1 (stereo not given)
inactive: Malme-3M > 100 µM | HL-60 > 100 µM | RPMI-8226 > 100 µM | NCI-H460 > 100 µM | HOP-92 > 100 µM | HCC 2998 > 100 µM | UO-31 > 100 µM | NCI-H23 > 100 µM | A498 > 100 µM | EKVX > 100 µM | SF-295 > 100 µM | OVCAR-3 > 100 µM

CC(=O)OCC1OC(N2C(=O)C(=O)c3cc(C)ccc32)C(OC(C)=O)C(OC(C)=O)C1OC(C)=O (stereo not given)
inactive: Malme-3M > 100 µM | HL-60 22.4 µM | RPMI-8226 29.4 µM | RXF 393 39.8 µM | NCI-H460 > 100 µM | SF-539 > 100 µM | SK-MEL-5 58.7 µM | HOP-92 51.5 µM | UO-31 > 100 µM | NCI-H23 52.1 µM | A498 > 100 µM | EKVX > 100 µM | SF-295 > 100 µM | OVCAR-3 99.3 µM

O=C(O)CCSC(=O)Nc1cccc(F)c1
inactive: HL-60 23.3 µM | RPMI-8226 > 100 µM | NCI-H460 > 100 µM | SF-539 > 100 µM | HCC 2998 > 100 µM | UO-31 > 100 µM | NCI-H23 > 100 µM | A498 > 100 µM | EKVX 3.55 µM | SF-295 > 100 µM | OVCAR-3 40.6 µM

O=S(=O)(O)c1cc(O)c2c(O)c(/N=N/c3ccc(/C=C/c4ccc(/N=N/c5c(S(=O)(=O)O)cc6cc(S(=O)(=O)O)cc(O)c6c5O)cc4S(=O)(=O)O)c(S(=O)(=O)O)c3)c(S(=O)(=O)O)cc2c1
inactive: Malme-3M > 100 µM | HL-60 > 100 µM | RPMI-8226 > 100 µM | RXF 393 > 100 µM | NCI-H460 > 100 µM | SF-539 > 100 µM | SK-MEL-5 > 100 µM | HOP-92 95.7 µM | HCC 2998 > 100 µM | UO-31 > 100 µM | NCI-H23 > 100 µM | A498 > 100 µM | EKVX > 100 µM | SF-295 > 100 µM | OVCAR-3 > 100 µM

O=C1C2C3CCC(C2C(=O)N1CO)C1C2C(=O)N(CO)C(=O)C2C31 (stereo not given)
inactive: Malme-3M > 100 µM | HL-60 12 µM | RPMI-8226 21.1 µM | RXF 393 > 46.9 µM | NCI-H460 22.7 µM | SF-539 43 µM | SK-MEL-5 43.4 µM | HOP-92 > 63.1 µM | UO-31 > 100 µM | NCI-H23 > 87.9 µM | A498 > 100 µM | EKVX > 100 µM | SF-295 > 64.9 µM | OVCAR-3 > 100 µM

CC1=C2C(=O)O[C@@H](c3ccoc3)[C@]2(C)CCC1 [FRAXINELLONE]
inactive: Malme-3M > 100 µM | HL-60 > 100 µM | RPMI-8226 > 100 µM | NCI-H460 > 100 µM | SF-539 > 100 µM | SK-MEL-5 > 100 µM | HOP-92 23.1 µM | HCC 2998 > 100 µM | UO-31 > 100 µM | NCI-H23 > 100 µM | EKVX > 100 µM | SF-295 > 100 µM | OVCAR-3 > 100 µM

O=C1c2ccccc2-c2c3c(cc4ccnc1c24)OCO3 [LIRIODENINE]
inactive: Malme-3M 3.59 µM and 3.03 µM | HL-60 3 µM | RPMI-8226 3.2 µM and 3.48 µM | RXF 393 5.55 µM and 5.06 µM | NCI-H460 3.59 µM and 3.34 µM | SK-MEL-5 2.84 µM | HOP-92 8.69 µM and 5.61 µM | HCC 2998 4.51 µM | UO-31 4.94 µM and 3.42 µM | NCI-H23 4.05 µM and 5.4 µM | A498 3.48 µM | EKVX 3.46 µM and 5.15 µM | SF-295 6.12 µM and 4.86 µM | OVCAR-3 9.25 µM and 10.5 µM

Reference: ChEMBL document CHEMBL1201862, “PubChem BioAssay data set” (2004)
